Data published in patent publication US11464784B2, “Inhibition of aminocylase 3 (AA3) in the treatment of cancer” (THE REGENTS OF THE UNIVERSITY OF CALIFORNIA, priority 2017, dated 2022).

Legend:
[1] = system: colon cancer cell lines COLO 205, HCT 116, LS 513; test: MTT cell viability, colon cancer cell lines; format: cell-based, human
Text: (§1) Human colon cancer cell lines COLO 205, HCT 116, LS 513 (all ATCC), primary colon epithelial cells (Cell Biologics), pancreatic cancer cell lines PANC-1, MIA PaCa-2, BxPC-3, and normal pancreatic duct epithelial cells (UCLA collection) were used in experiments. COLO 205, LS 513, BxPC-3 cells were cultivated in RPMI 1640 medium with 10% FBS, HCT 116 cells were cultivated in McCoy's 5A medium with 10% FBS, PANC-1 and MIA PaCa-2 cell lines were cultivated in DMEM medium with 10% FBS, and normal colon and pancreatic cells were maintained in Human Epithelial Cell Medium (Cell Biologics).
(§2) HCC cell lines HepG2, HuH7, primary hepatocytes, colon cell lines COLO 205, HCT 116, LS 513, primary colon epithelial cells, pancreatic cancer cell lines PANC-1, MIA PaCa-2, BxPC-3, and normal pancreatic duct epithelial cells were seeded in 96-well plates at a density 10,000 cells per well in complete medium. Next day medium was changed to medium containing 1% FBS and an AA3 inhibitor (3-100 μM). 24 h later cell viability was determined using the MTT (3-(4,5-dimethylthiazol-2-yl)-2,5-diphenyltetrazolium bromide) cell viability assay. Cells were incubated during 4 h at 37° C. with 150 μl fresh media containing 0.5 mg/ml MTT. Then 50 μl of 20% SDS in 25 mM HCl was added to each well, incubated for 4 h and the optical density at 570 nm was measured on a VMax Kinetic Microplate Reader (Molecular Devices, Sunnyvale, Calif.).

[2] = system: pancreatic cancer cell lines PANC-1, MIA PaCa-2, BxPC-3; test: MTT cell viability, pancreatic cancer cell lines; format: cell-based, human
Text: as §1, §2

[3] = system: normal pancreatic duct epithelial cells; test: MTT cell viability, normal pancreatic cells; format: cell-based, human
Text: as §1, §2

[4] = target: T1, mAA3 (Mus musculus, UniProt Q91XE4); conditions: substrate of mAA3; cited from earlier work
T1 sequence (Q91XE4 1-318): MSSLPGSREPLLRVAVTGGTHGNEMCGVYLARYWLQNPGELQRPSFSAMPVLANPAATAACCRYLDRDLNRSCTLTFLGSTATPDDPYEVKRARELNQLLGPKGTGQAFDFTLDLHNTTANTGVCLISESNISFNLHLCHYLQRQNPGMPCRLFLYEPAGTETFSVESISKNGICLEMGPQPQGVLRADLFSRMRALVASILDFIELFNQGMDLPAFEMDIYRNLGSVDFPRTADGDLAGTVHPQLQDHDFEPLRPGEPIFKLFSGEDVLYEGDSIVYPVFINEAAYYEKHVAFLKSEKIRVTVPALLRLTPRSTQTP

[5] = system: primary colon epithelial cells; test: MTT cell viability, normal colon cells; format: cell-based, human; conditions: colon (FIG. 24)
Text: as §1
as §2, with “Cells were incubated during 4 h at 37° C. with 150 μl fresh media containing 0.5 mg/ml MTT.” left out

[6] = substrate: CC(=O)C/C(C)=C/CC/C(C)=C/CC/C(C)=C/CC/C(C)=C/CN[C@@H](CS)C(=O)O; test: Deacetylation of NAFC and NAGGC by human AA3; format: biochemical; conditions: other: substrate of human AA3; pH 7.5
Description: (§3) AA3 activity was measured using a previously described fluorescence assay. Human purified AA3 (1 μg), rat AA1 (1 μg) or immunoaffinity purified AA3 from HepG2 and HuH7 cells were assayed for 30 min at […] in […] of 50 mM sodium phosphate buffer, pH 7.5, containing 1 mM NAFC or NAGGC both from Cayman Chemical (Ann Arbor, Mich.). Then 100 μl of the reaction mixture was added to 1 ml of 50 mM sodium phosphate buffer containing 1 mM fluorescamine, and fluorescence was measured (390 nm excitation, 475 nm emission).
(§4) To study the deacetylation of NAFC and NAGGC mediated by AA3, 50 μl aliquots from the reaction assays were injected onto Agilent Eclipse Plus C18 reverse phase HPLC column equilibrated with 0.1% formic acid, and eluted with acetonitrile/0.1% formic acid gradient (0-90%, 20 min). The effluent from the column was passed to an Ionspray ion source connected to a triple quadrupole mass-spectrometer (MS) API III+(PerkinElmer, Boston, Mass.). NAFC and NAGGC (Cayman Chemical) were used for MS calibration.

[7] = substrate: CC(=O)CC(C)=CCCC(C)=CCCC(C)=CCN[C@@H](CS)C(=O)O; test: Deacetylation of NAFC and NAGGC by human AA3; format: biochemical; conditions: other: substrate of human AA3; pH 7.5
Description: as §3, §4

Molecule: Cc1ccc(N2C(=O)/C(=C/c3cc([N+](=O)[O-])cc(Br)c3O)SC2=S)c(C)c1 [Inhibitor 3, (5Z)-5-(3-Bromo-2-hydroxy-5-nitrobenzylidene)-3-(2,4-dimethylphenyl)-2-thioxo-1,3-thiazolidin-4-one]
- growth of colon cancer cell lines ([1]; lines expressing mutant (mut) KRas): suppress growth
- toxicity for pancreatic cancer cells [2]: toxic
- toxicity for pancreatic normal cells [3]: toxic

Molecule: CC(=O)N[C@@H](CSC(Cl)(Cl)C(F)F)C(=O)O [N-Acetyl-S-(2,2-difluoro-1,1-dichloroethyl)-L-cysteine]
- Vmax, times lower than N-acetyl-S-(2,2-dichloro-1,1-difluoroethyl)-L-cysteine [4]: ~30 times
- affinity, times higher than N-acetyl-S-(2,2-dichloro-1,1-difluoroethyl)-L-cysteine [4]: ~18 times

Molecule: Cc1ccc(-n2sc3ccccc3c2=O)cc1 [Inhibitor 21, 2-(4-methylphenyl)-1,2-benzothiazol-3-one]
- growth of colon cancer cell lines ([1]; lines expressing wild type (wt) or mutant (mut) KRas): suppress growth
- toxicity for normal vs cancer cell lines [5]: significantly less toxic
- toxicity for pancreatic cancer cells [2]: toxic
- efficiency for pancreatic cell lines ([2]; lines expressing either wild type (wt) or mutant (mut) KRas): efficient
- toxicity for pancreatic normal cells [3]: toxic
- toxicity for normal vs cancer cell lines ([3]; pancreatic (FIG. 25)): significantly less toxic

B1: human AA3 (Homo sapiens) (protein)
chain: MCSLPVPREPLRRVAVTGGTHGNEMSGVYLARHWLHAPAELQRASFSAVPVLANPAATSGCRRYVDHDLNRTFTSSFLNSRPTPDDPYEVTRARELNQLLGPKASGQAFDFVLDLHNTTANMGTCLIAKSSHEVFAMHLCRHLQLQYPELSCQVFLYQRSGEESYNLDSVAKNGLGLELGPQPQGVLRADIFSRMRTLVATVLDFIELFNQGTAFPAFEMEAYRPVGVVDFPRTEAGHLAGTVHPQLQDRDFQPLQPGAPIFQMFSGEDLLYEGESTVYPVFINEAAYYEKGVAFVQTEKFTFTVPAMPALTPAPSPAS
notes: 6His (N); made in house; host or cells: E. coli
- Km [6]: 140 µM
- kcat [6]: 7.2 s⁻¹
- Km [7]: 25 µM
- kcat [7]: 2 s⁻¹
